Experimental data reported in patent publication US20240376121A1, “COMPOUNDS AND USES THEREOF” (Foghorn Therapeutics Inc., priority 2021, published 2024).

Tests used:
[1] = target: T1, HiBit-BRM fusion protein (Homo sapiens, UniProt P51531); test: HiBiT-BRM cell-based degradation assay (Nano-Glo HiBiT Lytic Detection); conditions: stable HeLa cell line expressing HiBiT-BRM, 24 h incubation; for BRM HiBit Degradation Maximum (%): top dose 30 μM; for DC50: read-out: BRM HiBit Degradation IC50
T1 construct: expressed in transfected cells
Summary of the method: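 Luminescence from reconstituted NanoBiT luciferase in lysed HeLa HiBiT-BRM cells served as the measure of remaining BRM after 24 h treatment. Compounds were tested from 30 μM final downward in 3-fold steps. DMSO and 2 μM of a standard BRM/BRG1 degrader defined the scale limits.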

[2] = target: T2, HiBit-BRG1 fusion protein (Homo sapiens, UniProt P51532); test: HiBiT-BRG1 cell-based degradation assay (Nano-Glo HiBiT Lytic Detection); conditions: stable HeLa cell line expressing HiBit-BRG1 and LgBit, 24 h incubation; for Dmax: top dose 30 μM, read-out: BRG1 HiBit Degradation Maximum (%); for DC50: read-out: BRMG1 HiBit Degradation IC50
T2 construct: expressed in transfected cells
Summary of the method: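 HeLa cells stably expressing HiBiT-BRG1 and LgBiT treated 24 h with 10-point 3-fold dilutions (top 30 μM, duplicate). Luminescence read after Nano-Glo HiBiT lytic reagent; % degradation relative to DMSO (high control) and 2 μM reference BRM/BRG1 degrader (low control).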

T2 sequence (P51532 whole entry, the tested form may be a part): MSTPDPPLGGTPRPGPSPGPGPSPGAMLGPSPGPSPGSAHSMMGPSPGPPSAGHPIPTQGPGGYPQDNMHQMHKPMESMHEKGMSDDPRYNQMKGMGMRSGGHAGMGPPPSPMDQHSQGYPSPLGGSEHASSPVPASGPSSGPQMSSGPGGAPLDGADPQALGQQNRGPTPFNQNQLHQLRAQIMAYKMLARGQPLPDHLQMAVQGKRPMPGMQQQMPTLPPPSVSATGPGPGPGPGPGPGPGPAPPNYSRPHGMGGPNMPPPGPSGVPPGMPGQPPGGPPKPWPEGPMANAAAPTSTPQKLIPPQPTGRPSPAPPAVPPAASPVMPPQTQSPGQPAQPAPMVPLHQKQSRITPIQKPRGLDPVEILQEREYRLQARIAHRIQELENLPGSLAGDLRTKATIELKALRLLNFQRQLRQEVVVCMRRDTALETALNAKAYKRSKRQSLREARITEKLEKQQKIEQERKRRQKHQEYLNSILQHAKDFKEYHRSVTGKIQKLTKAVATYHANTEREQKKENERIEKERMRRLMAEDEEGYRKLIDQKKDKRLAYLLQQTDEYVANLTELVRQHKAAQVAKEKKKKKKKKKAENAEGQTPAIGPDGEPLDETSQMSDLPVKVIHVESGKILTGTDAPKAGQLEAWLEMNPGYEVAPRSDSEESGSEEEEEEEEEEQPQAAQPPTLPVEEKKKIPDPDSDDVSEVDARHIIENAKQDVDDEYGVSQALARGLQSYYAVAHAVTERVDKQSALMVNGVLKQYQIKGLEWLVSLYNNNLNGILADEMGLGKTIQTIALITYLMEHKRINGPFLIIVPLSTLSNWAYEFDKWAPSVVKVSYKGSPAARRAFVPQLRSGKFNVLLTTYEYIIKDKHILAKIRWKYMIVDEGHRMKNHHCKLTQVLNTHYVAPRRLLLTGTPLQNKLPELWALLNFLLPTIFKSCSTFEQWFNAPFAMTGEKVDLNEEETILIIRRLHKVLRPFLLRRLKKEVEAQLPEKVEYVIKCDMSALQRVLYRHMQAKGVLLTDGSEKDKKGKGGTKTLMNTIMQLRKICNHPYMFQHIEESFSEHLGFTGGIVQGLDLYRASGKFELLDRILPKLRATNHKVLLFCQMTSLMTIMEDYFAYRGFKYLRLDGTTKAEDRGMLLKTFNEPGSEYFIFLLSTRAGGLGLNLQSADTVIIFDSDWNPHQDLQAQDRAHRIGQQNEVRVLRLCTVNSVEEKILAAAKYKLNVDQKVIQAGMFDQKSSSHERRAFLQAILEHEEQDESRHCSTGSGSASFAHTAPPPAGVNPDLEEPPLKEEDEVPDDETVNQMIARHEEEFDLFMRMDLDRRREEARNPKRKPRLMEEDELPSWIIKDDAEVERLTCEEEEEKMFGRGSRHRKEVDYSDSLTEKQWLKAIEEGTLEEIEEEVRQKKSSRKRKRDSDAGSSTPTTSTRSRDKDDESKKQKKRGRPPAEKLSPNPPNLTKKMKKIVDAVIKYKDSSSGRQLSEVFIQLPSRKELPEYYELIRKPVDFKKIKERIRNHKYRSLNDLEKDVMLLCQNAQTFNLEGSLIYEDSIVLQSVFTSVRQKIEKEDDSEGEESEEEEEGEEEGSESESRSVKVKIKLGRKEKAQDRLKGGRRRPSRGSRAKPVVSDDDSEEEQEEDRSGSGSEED
T1 sequence (P51531 whole entry, the tested form may be a part): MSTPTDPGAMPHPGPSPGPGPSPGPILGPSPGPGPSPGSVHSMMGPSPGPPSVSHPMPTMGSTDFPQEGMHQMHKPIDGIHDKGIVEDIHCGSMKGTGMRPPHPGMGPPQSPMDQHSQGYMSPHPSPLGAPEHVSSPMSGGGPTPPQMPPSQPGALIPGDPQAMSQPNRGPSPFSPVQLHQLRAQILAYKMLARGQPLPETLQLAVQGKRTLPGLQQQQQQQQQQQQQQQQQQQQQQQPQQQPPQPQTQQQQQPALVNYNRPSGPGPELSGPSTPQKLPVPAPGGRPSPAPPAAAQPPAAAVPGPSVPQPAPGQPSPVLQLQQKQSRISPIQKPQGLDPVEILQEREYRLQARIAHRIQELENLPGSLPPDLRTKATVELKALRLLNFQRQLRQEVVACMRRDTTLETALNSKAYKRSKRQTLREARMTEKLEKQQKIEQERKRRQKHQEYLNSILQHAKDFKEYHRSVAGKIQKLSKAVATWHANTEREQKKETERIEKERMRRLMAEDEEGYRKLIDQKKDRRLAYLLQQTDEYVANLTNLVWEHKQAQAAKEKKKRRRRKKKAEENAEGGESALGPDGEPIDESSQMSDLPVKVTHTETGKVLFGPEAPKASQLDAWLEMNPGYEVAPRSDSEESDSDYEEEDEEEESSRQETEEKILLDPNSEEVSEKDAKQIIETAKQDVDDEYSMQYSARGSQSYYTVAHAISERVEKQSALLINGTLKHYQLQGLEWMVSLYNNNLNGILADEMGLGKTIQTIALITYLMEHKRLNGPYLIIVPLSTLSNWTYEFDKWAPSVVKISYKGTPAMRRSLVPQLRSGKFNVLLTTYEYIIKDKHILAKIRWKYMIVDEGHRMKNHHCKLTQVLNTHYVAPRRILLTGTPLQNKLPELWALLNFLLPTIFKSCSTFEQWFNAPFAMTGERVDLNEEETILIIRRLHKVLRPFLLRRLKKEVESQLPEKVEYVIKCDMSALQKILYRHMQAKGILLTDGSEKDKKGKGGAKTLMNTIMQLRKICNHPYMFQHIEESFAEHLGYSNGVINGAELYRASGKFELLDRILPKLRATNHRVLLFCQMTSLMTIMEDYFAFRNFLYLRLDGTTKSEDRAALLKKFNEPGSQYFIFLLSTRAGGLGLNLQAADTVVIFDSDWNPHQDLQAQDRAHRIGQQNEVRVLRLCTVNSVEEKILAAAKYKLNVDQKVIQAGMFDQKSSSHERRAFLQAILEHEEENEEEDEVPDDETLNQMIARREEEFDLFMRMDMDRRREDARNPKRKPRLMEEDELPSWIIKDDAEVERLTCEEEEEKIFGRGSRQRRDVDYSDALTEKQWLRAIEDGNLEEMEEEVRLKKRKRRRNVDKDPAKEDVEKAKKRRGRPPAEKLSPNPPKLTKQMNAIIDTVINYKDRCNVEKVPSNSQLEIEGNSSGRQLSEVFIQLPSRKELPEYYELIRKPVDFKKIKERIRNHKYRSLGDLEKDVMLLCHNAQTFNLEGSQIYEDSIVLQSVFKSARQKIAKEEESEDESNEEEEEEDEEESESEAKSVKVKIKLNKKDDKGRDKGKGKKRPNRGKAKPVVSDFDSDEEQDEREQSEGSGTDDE

SMILES	BRM HiBit Degradation Maximum (%) [1]	DC50 [1]	Dmax [2]	DC50 [2]
Cc1ncsc1-c1ccc([C@H](C)NC(=O)[C@@H]2C[C@@H](O)CN2C(=O)[C@@H](c2cc(N3C[C@@H]4C[C@H]3CN4C(=O)[C@@H]3CCc4sc5nnc(-c6ccccc6O)cc5c4C3)no2)C(C)C)cc1 [Compound 44, (2S,4R)-4-hydroxy-1-((R)-2-(3-((1S,4S)-5-((R)-3-(2-hydroxyphenyl)-5,6,7,8-tetrahydrobenzo[4,5]thieno[2,3-c]pyridazine-6-carbonyl)-2,5-diazabicyclo[2.2.1]heptan-2-yl)isoxazol-5-yl)-3-methylbutanoyl)-N-((S)-1-(4-(4-methylthiazol-5-yl)phenyl)ethyl)pyrrolidine-2-carboxamide]	B (“B” indicates maximum degradation ≥ 50%)	≥ 100 nM	< 50%	≥ 1000 nM
Cc1ncsc1-c1ccc([C@H](C)NC(=O)[C@@H]2C[C@@H](O)CN2C(=O)[C@@H](c2cc(OCCNC(=O)[C@H]3CCc4sc5nnc(-c6ccccc6O)cc5c4C3)no2)C(C)C)cc1 [Compound 45, (S)-N-(2-((5-((R)-1-((2S,4R)-4-hydroxy-2-(((S)-1-(4-(4-methylthiazol-5-yl)phenyl)ethyl)carbamoyl)pyrrolidin-1-yl)-3-methyl-1-oxobutan-2-yl)isoxazol-3-yl)oxy)ethyl)-3-(2-hydroxyphenyl)-5,6,7,8-tetrahydrobenzo[4,5]thieno[2,3-c]pyridazine-6-carboxamide]	B (“B” indicates maximum degradation ≥ 50%)	≥ 100 nM	< 50%	≥ 1000 nM
Cc1ncsc1-c1ccc([C@H](C)NC(=O)[C@@H]2C[C@@H](O)CN2C(=O)[C@@H](c2cc(OCCNC(=O)[C@@H]3CCc4sc5nnc(-c6ccccc6O)cc5c4C3)no2)C(C)C)cc1 [Compound 46, (R)-N-(2-((5-((R)-1-((2S,4R)-4-hydroxy-2-(((S)-1-(4-(4-methylthiazol-5-yl)phenyl)ethyl)carbamoyl)pyrrolidin-1-yl)-3-methyl-1-oxobutan-2-yl)isoxazol-3-yl)oxy)ethyl)-3-(2-hydroxyphenyl)-5,6,7,8-tetrahydrobenzo[4,5]thieno[2,3-c]pyridazine-6-carboxamide]	C (“C” indicates maximum degradation < 50%)	≥ 1000 nM	< 50%	≥ 1000 nM
Cc1ncsc1-c1ccc([C@H](C)NC(=O)[C@@H]2C[C@@H](O)CN2C(=O)[C@@H](c2cc(C3CCN(C(=O)[C@H]4CCc5sc6nnc(-c7ccccc7O)cc6c5C4)CC3)no2)C(C)C)cc1 [Compound 47, (2S,4R)-4-hydroxy-1-((R)-2-(3-(1-((S)-3-(2-hydroxyphenyl)-5,6,7,8-tetrahydrobenzo[4,5]thieno[2,3-c]pyridazine-6-carbonyl)piperidin-4-yl)isoxazol-5-yl)-3-methylbutanoyl)-N-((S)-1-(4-(4-methylthiazol-5-yl)phenyl)ethyl)pyrrolidine-2-carboxamide]	A (“A” indicates maximum degradation ≥ 75%)	≥ 100 nM	< 50%	≥ 1000 nM
Cc1ncsc1-c1ccc([C@H](C)NC(=O)[C@@H]2C[C@@H](O)CN2C(=O)[C@@H](c2cc(C3CCN(C(=O)[C@@H]4CCc5sc6nnc(-c7ccccc7O)cc6c5C4)CC3)no2)C(C)C)cc1 [Compound 48, (2S,4R)-4-hydroxy-1-((R)-2-(3-(1-((R)-3-(2-hydroxyphenyl)-5,6,7,8-tetrahydrobenzo[4,5]thieno[2,3-c]pyridazine-6-carbonyl)piperidin-4-yl)isoxazol-5-yl)-3-methylbutanoyl)-N-((S)-1-(4-(4-methylthiazol-5-yl)phenyl)ethyl)pyrrolidine-2-carboxamide]	C (“C” indicates maximum degradation < 50%)	≥ 1000 nM	< 50%	≥ 1000 nM
